# Experimental data from BindingDB's records for doi:10.1021/acsmedchemlett.0c00015 (The Genomics Institute of The Novartis Research Foundation, 2020).
# Tests used:
# [1] = Inhibition of CCDC6/RET (unknown origin) transfected in human LC2/ad cells assessed as reduction in cell viability incubated for 6 days by CellTiter Glo assay
# [2] = Inhibition of KIF5B-RET (unknown origin) transfected in mouse Ba/F3 cells assessed as reduction in cell viability incubated for 48 hrs by brightglo-luciferase reporter gene assay
# [3] = Inhibition of TEL/KDR (unknown origin) transfected in mouse Ba/F3 cells assessed as reduction in cell viability incubated for 48 hrs by brightglo-luciferase reporter gene assay
# [4] = Inhibition of FLT1 (unknown origin) transfected in mouse Ba/F3 cells assessed as reduction in cell viability incubated for 48 hrs by brightglo-luciferase reporter gene assay
# [5] = Inhibition of FGFR2 (unknown origin) transfected in mouse Ba/F3 cells assessed as reduction in cell viability incubated for 48 hrs by brightglo-luciferase reporter gene assay
# [6] = Inhibition of MER (unknown origin) transfected in mouse Ba/F3 cells assessed as reduction in cell viability incubated for 48 hrs by brightglo-luciferase reporter gene assay
# [7] = Inhibition of NPM/ALK (unknown origin) transfected in mouse Ba/F3 cells assessed as reduction in cell viability incubated for 48 hrs by brightglo-luciferase reporter gene assay
# [8] = Inhibition of FGFR1 (unknown origin) transfected in mouse Ba/F3 cells assessed as reduction in cell viability incubated for 48 hrs by brightglo-luciferase reporter gene assay
# [9] = Inhibition of KDR (unknown origin) transfected in mouse Ba/F3 cells assessed as reduction in cell viability incubated for 48 hrs by brightglo-luciferase reporter gene assay
# [10] = Inhibition of TRKB (unknown origin) transfected in mouse Ba/F3 cells assessed as reduction in cell viability incubated for 48 hrs by brightglo-luciferase reporter gene assay
# [11] = Inhibition of IGF1R (unknown origin) transfected in mouse Ba/F3 cells assessed as reduction in cell viability incubated for 48 hrs by brightglo-luciferase reporter gene assay
# [12] = Inhibition of KIT (unknown origin) transfected in mouse Ba/F3 cells assessed as reduction in cell viability incubated for 48 hrs by brightglo-luciferase reporter gene assay
# [13] = Inhibition of PDGFRalpha (unknown origin) transfected in mouse Ba/F3 cells assessed as reduction in cell viability incubated for 48 hrs by brightglo-luciferase reporter gene assay
# [14] = Inhibition of TRKA (unknown origin) transfected in mouse Ba/F3 cells assessed as reduction in cell viability incubated for 48 hrs by brightglo-luciferase reporter gene assay
# [15] = Inhibition of BLK (unknown origin) transfected in mouse Ba/F3 cells assessed as reduction in cell viability incubated for 48 hrs by brightglo-luciferase reporter gene assay
# [16] = Inhibition of MET (unknown origin) transfected in mouse Ba/F3 cells assessed as reduction in cell viability incubated for 48 hrs by brightglo-luciferase reporter gene assay
# [17] = Inhibition of ZAP70 (unknown origin) transfected in mouse Ba/F3 cells assessed as reduction in cell viability incubated for 48 hrs by brightglo-luciferase reporter gene assay
# [18] = Inhibition of TYRO3 (unknown origin) transfected in mouse Ba/F3 cells assessed as reduction in cell viability incubated for 48 hrs by brightglo-luciferase reporter gene assay
# [19] = Inhibition of PDGFRbeta (unknown origin) transfected in mouse Ba/F3 cells assessed as reduction in cell viability incubated for 48 hrs by brightglo-luciferase reporter gene assay
# [20] = Inhibition of INSR (unknown origin) transfected in mouse Ba/F3 cells assessed as reduction in cell viability incubated for 48 hrs by brightglo-luciferase reporter gene assay
# [21] = Inhibition of KIF5B-RET V804M mutant (unknown origin) transfected in mouse Ba/F3 cells assessed as reduction in cell viability incubated for 48 hrs by brightglo-luciferase reporter gene assay
# [22] = Inhibition of FGFR4 (unknown origin) transfected in mouse Ba/F3 cells assessed as reduction in cell viability incubated for 48 hrs by brightglo-luciferase reporter gene assay
# [23] = Inhibition of RET (unknown origin) transfected in mouse Ba/F3 cells assessed as reduction in cell viability incubated for 48 hrs by brightglo-luciferase reporter gene assay
# [24] = Inhibition of LYN (unknown origin) transfected in mouse Ba/F3 cells assessed as reduction in cell viability incubated for 48 hrs by brightglo-luciferase reporter gene assay
# [25] = Inhibition of FLT3 (unknown origin) transfected in mouse Ba/F3 cells assessed as reduction in cell viability incubated for 48 hrs by brightglo-luciferase reporter gene assay
# [26] = Inhibition of JAK2 (unknown origin) transfected in mouse Ba/F3 cells assessed as reduction in cell viability incubated for 48 hrs by brightglo-luciferase reporter gene assay
# [27] = Inhibition of RON (unknown origin) transfected in mouse Ba/F3 cells assessed as reduction in cell viability incubated for 48 hrs by brightglo-luciferase reporter gene assay
# [28] = Inhibition of LCK (unknown origin) transfected in mouse Ba/F3 cells assessed as reduction in cell viability incubated for 48 hrs by brightglo-luciferase reporter gene assay
# [29] = Inhibition of SRC (unknown origin) transfected in mouse Ba/F3 cells assessed as reduction in cell viability incubated for 48 hrs by brightglo-luciferase reporter gene assay
# [30] = Inhibition of FGFR3 (unknown origin) transfected in mouse Ba/F3 cells assessed as reduction in cell viability incubated for 48 hrs by brightglo-luciferase reporter gene assay
# [31] = Inhibition of SYK (unknown origin) transfected in mouse Ba/F3 cells assessed as reduction in cell viability incubated for 48 hrs by brightglo-luciferase reporter gene assay
# [32] = Inhibition of TRKC (unknown origin) transfected in mouse Ba/F3 cells assessed as reduction in cell viability incubated for 48 hrs by brightglo-luciferase reporter gene assay
# [33] = Inhibition of FMS (unknown origin) transfected in mouse Ba/F3 cells assessed as reduction in cell viability incubated for 48 hrs by brightglo-luciferase reporter gene assay
# [34] = Inhibition of TIE1 (unknown origin) transfected in mouse Ba/F3 cells assessed as reduction in cell viability incubated for 48 hrs by brightglo-luciferase reporter gene assay
# [35] = Inhibition of ROS (unknown origin) transfected in mouse Ba/F3 cells assessed as reduction in cell viability incubated for 48 hrs by brightglo-luciferase reporter gene assay
# [36] = Inhibition of FGR (unknown origin) transfected in mouse Ba/F3 cells assessed as reduction in cell viability incubated for 48 hrs by brightglo-luciferase reporter gene assay
# [37] = Inhibition of BMX (unknown origin) transfected in mouse Ba/F3 cells assessed as reduction in cell viability incubated for 48 hrs by brightglo-luciferase reporter gene assay
structure (smiles),measurement,setting,value
COc1ccc(-c2cnn3c(N)c(-c4ccccc4)c(OC4CCNCC4)nc23)cc1OC,IC50,[1],0.16 µM
same,IC50,[2],0.079 µM
same,IC50,[3],3.6 µM
COc1ccc(-c2cnn3c(N)c(-c4ccccc4)c(NC4CC(C)(C)N(C)C(C)(C)C4)nc23)cc1OC,IC50,[1],0.0053 µM
same,IC50,[2],0.0017 µM
same,IC50,[3],0.99 µM
COc1ccc(-c2cnn3c(N)c(-c4nccs4)c(OC4CCN(C)CC4)nc23)cc1OC,IC50,[4],> 11 µM
same,IC50,[5],3 µM
same,IC50,[6],> 8.7 µM
same,IC50,[7],> 11 µM
same,IC50,[8],3.1 µM
same,IC50,[9],0.24 µM
same,IC50,[10],0.77 µM
same,IC50,[11],8.7 µM
same,IC50,[12],1.6 µM
same,IC50,[13],0.009 µM
same,IC50,[2],0.12 µM
same,IC50,[14],> 11 µM
same,IC50,[15],8.2 µM
same,IC50,[16],> 11 µM
same,IC50,[17],> 11 µM
same,IC50,[18],> 11 µM
same,IC50,[19],0.041 µM
same,IC50,[20],> 10 µM
same,IC50,[21],0.61 µM
same,IC50,[22],4.4 µM
same,IC50,[23],0.21 µM
same,IC50,[24],1.5 µM
same,IC50,[25],> 11 µM
same,IC50,[26],3.8 µM
same,IC50,[27],> 11 µM
same,IC50,[28],1.2 µM
same,IC50,[29],2.4 µM
same,IC50,[30],4.9 µM
same,IC50,[31],> 11 µM
same,IC50,[32],0.5 µM
same,IC50,[33],4.3 µM
same,IC50,[34],> 11 µM
same,IC50,[35],> 11 µM
same,IC50,[36],4.1 µM
same,IC50,[37],> 11 µM
COC(=O)Nc1ccc(-c2c(OC3CCN(C)CC3)nc3c(-c4ccc(OC)c(OC)c4)cnn3c2N)cc1,IC50,[4],3 µM
same,IC50,[5],0.008 µM
same,IC50,[6],0.086 µM
same,IC50,[7],1.2 µM
same,IC50,[8],0.01 µM
same,IC50,[9],0.026 µM
same,IC50,[10],2.1 µM
same,IC50,[11],> 7.5 µM
same,IC50,[12],0.02 µM
same,IC50,[13],0.017 µM
same,IC50,[2],0.006 µM
same,IC50,[14],2.8 µM
same,IC50,[15],0.23 µM
same,IC50,[16],> 11 µM
same,IC50,[17],9.1 µM
same,IC50,[18],3.7 µM
same,IC50,[19],0.022 µM
same,IC50,[20],> 9.1 µM
same,IC50,[21],0.019 µM
same,IC50,[22],0.035 µM
same,IC50,[23],0.006 µM
same,IC50,[24],0.067 µM
same,IC50,[25],3.4 µM
same,IC50,[26],0.084 µM
same,IC50,[27],6 µM
same,IC50,[28],2.4 µM
same,IC50,[30],0.43 µM
same,IC50,[31],1.4 µM
same,IC50,[32],1.4 µM
same,IC50,[33],0.082 µM
same,IC50,[34],> 10 µM
same,IC50,[35],5.5 µM
same,IC50,[36],0.44 µM
same,IC50,[37],> 7.4 µM
COc1ccc(-c2cnn3c(N)c(-c4ccccc4)c(OC4CCN(C)CC4)nc23)cc1OC,IC50,[4],> 11 µM
same,IC50,[5],3.7 µM
same,IC50,[6],> 11 µM
same,IC50,[7],8.3 µM
same,IC50,[8],> 5.6 µM
same,IC50,[9],> 11 µM
same,IC50,[10],> 11 µM
same,IC50,[11],> 11 µM
same,IC50,[1],0.095 µM
same,IC50,[13],0.093 µM
same,IC50,[2],0.037 µM
same,IC50,[14],> 11 µM
same,IC50,[15],0.52 µM
same,IC50,[16],> 11 µM
same,IC50,[17],> 11 µM
same,IC50,[18],> 11 µM
same,IC50,[19],0.1 µM
same,IC50,[20],> 11 µM
same,IC50,[21],1.8 µM
same,IC50,[22],> 11 µM
same,IC50,[23],0.17 µM
same,IC50,[24],0.41 µM
same,IC50,[25],1.7 µM
same,IC50,[26],> 1.3 µM
same,IC50,[27],> 11 µM
same,IC50,[28],0.11 µM
same,IC50,[29],0.12 µM
same,IC50,[30],> 9.8 µM
same,IC50,[31],7.6 µM
same,IC50,[32],> 11 µM
same,IC50,[33],0.4 µM
same,IC50,[34],> 11 µM
same,IC50,[35],> 11 µM
same,IC50,[36],0.098 µM
same,IC50,[3],1.4 µM
same,IC50,[37],> 11 µM
CN1C(C)(C)CC(Nc2nc3c(-c4ccc(C(=O)N5C[C@@H]6C[C@H]5CO6)cc4)cnn3c(N)c2-c2ccccc2)CC1(C)C,IC50,[1],0.016 µM
same,IC50,[2],0.0054 µM
same,IC50,[3],1.3 µM
COC(=O)N1CCN(C(=O)c2ccc(-c3cnn4c(N)c(-c5ccccc5)c(NC5CC(C)(C)N(C)C(C)(C)C5)nc34)cc2)CC1,IC50,[1],0.015 µM
same,IC50,[2],0.0033 µM
same,IC50,[3],0.89 µM
COc1ccc(-c2cnn3c(N)c(-c4ccccc4)c(NCCCN(C)C)nc23)cc1OC,IC50,[2],0.056 µM
same,IC50,[3],> 7.9 µM
CN1C(C)(C)CC(Nc2nc3c(-c4ccc(C(=O)N5CCN(S(C)(=O)=O)CC5)cc4)cnn3c(N)c2-c2ccccc2)CC1(C)C,IC50,[1],0.0062 µM
same,IC50,[2],0.0063 µM
same,IC50,[3],1.1 µM
COc1ccc(-c2cnn3c(N)c(-c4ccccc4)c(NC4CCN(C)CC4)nc23)cc1OC,IC50,[1],0.056 µM
same,IC50,[2],0.031 µM
same,IC50,[3],3.1 µM
COc1ccc(-c2cnn3c(N)c(-c4ccccc4)c(OCCCN(C)C)nc23)cc1OC,IC50,[2],0.07 µM
same,IC50,[3],3 µM
